Experiment [1] relates to normal human melanocytes (MHN). Nature of the experiment: Inhibition of melanin synthesis (in vitro) in culture of normal human melanocytes. Type of experiment: cell-based. The following applies: 7 days of exposure, various concentrations, vs control cells, normalized on protein content. Here is the method: The efficacy of the products on melanization was tested in culture of normal human melanocytes (MHN). This culture medium is conventionally used to test variations in melanin levels. The cells are incubated in the presence of the test product for 7 days while the control cells are incubated in the culture medium alone.
After 7 days, the total melanin (phaeomelanin and eumelanin) present in the cells is determined after cell lysis and dissolution in sodium hydroxide, the assay is colorimetric.
The melanin level produced under exposure to the test product at various concentrations are compared to those obtained with the control cells. The data are normalized on the protein content of the sample.
The inhibition of synthesis observed after 7 days of exposure to those products is dependent on the test concentration. Inhibition varies from −28 to −51%.

A short description of experiment [2]: Inhibition of peroxidation induced on liposomes by UVA. The following applies: for Inhibition perox. UVA: UVA 10 J/cm^2, 45° C., 24 hours, combined dienes. On the procedure: (§1) In order to seek an antioxidant activity, we evaluated 2,9-diacetyloxy-1,10-dimethoxy-6-methyl-noraporphine (compound II) effect on the inhibition of peroxidation induced on liposomes by UVA or pair HO2/FeCl2.
(§2) The liposomes, once manufactured, receive the products to be tested in solution. Then they are put under UVA lamp and are irradiated to 10 J/cm^2. The liposomes are incubated at 45° C. After 24 hours, the lipidic peroxidation is quantified by estimating the rate of combined dienes markers. The effect of the product is compared with negative control.

Experiment [3] in a line: Inhibition of peroxidation induced on liposomes by HO2/FeCl2 (Fenton reaction). The conditions noted are these: 0.06 mmol/l; similar protocol with HO2/FeCl2 added to the liposomes. On the procedure:
as §1, §2
A strong inhibition (−60% with 0.06 mmol/l) is also obtained in a similar protocol when HO2/FeCl2. is added (Fenton reaction) to the solution of liposomes.

Experiment [4] deals with G-3-PDH (Glycerol-3-Phosphate deshydrogenase) activity in fibroblasts 3T3 L1 / pre-adipocytes. Nature of the experiment: Inhibition of lipogenesis (in vitro): G-3-PDH activity in differentiating 3T3 L1 pre-adipocytes. Format: cell-based. The conditions noted are these: for ACTIVITY G-3-PDH/10^−6 cells (inhibition in % of the witness): average of 3 independent tests. Here is the method:
The following test is based on the fact that a cocktail from substances (hormonal messengers) induce the fibroblasts 3T3 L1 differentiation, in culture, into pre-adipocytes then in adipocytes charged with lipids.
The culture proceeds in three stages: cellular multiplication until confluence, addition of cocktail of differentiation (stage during which the initial pre-adipocytes are obtained (72 hours), then active differentiation with lipogenesis stimulation (approximately 72 hours) at the end of which apparent storage in lipidic droplets is then definitely visible under microscope.
The enzyme G-3-PDH (Glycerol-3-Phosphate deshydrogenase), essential to triglyceride synthesis is expressed very strongly during this active stage of lipidic storage.
The product to be tested is added at the second step.
After the incubation period the G-3-PDH activity is compared between the pre-adipocytes witnesses and those incubated in the presence of the tested product. Under these conditions, a product which inhibits the lipogenesis causes a fall of the G-3-PDH activity.
After the induced differentiation, the solution to test is added to the culture of pre-adipocytes, here a 2,9-diacetyloxy-1,10-dimethoxy-6-methyl-noraporphine solution (compound II). In parallel, two witness cultures, one in negative and the other in positive are carried out.
At the end of the incubation, the cells are taken and lysed and the test is carried out on the intracellular contents.
The G-3-PDH activity is measured by NADH disappearance (λ=340 nm).
The enzymatic activity values are standardized with the number of cells.

Consider `COc1cc2c(cc1OC(C)=O)CC1c3c(cc(OC(C)=O)c(OC)c3-2)CCN1C` (centres unmarked) [compound II, 2,9-diacetyloxy-1,10-dimethoxy-6-methyl-noraporphine], for which the “Inhibition of melanin synthesis” value in experiment [1] was −28 to −51%. For the same compound, the “Inhibition perox. UVA” value in experiment [2] (0.03 mmol/l) was −93%; in experiment [2] (0.06 mmol/l), −87%; in experiment [2] (0.09 mmol/l), −89%; in experiment [2] (0.15 mmol/l), “≈−100%”; in experiment [2] (0.30 mmol/l) it was “≈−100%”. The “Inhibition of lipidic peroxidation UVA induced (in words)” value in experiment [2] (with the tested concentrations (0.03-0.30 mmol/l)) is listed as “almost completely inhibits”. In addition, the “Inhibition of peroxidation, HO2/FeCl2 (Fenton reaction)” value in experiment [3] is −60%. For the same compound, the “ACTIVITY G-3-PDH/10^−6 cells (inhibition in % of the witness)” value is −49% in experiment [4] (0.03 mmol/l) and −67% in experiment [4] (0.06 mmol/l). Moreover, in experiment [4] (compared to witness cells), the “Morphology of the preadipocytes under microscope” value was “few lipidic inclusions”.

For the origin of these results see patent publication US7354926B2, “Molecules derived from noraporphine” (Sederma SAS, priority 2002, dated 2008).
